Assay: molar heat capacity at constant pressure
Conditions: 101.33 kPa, Crystal

CC1=CCC2C(=O)OC(=O)C2C1 (configuration not stated) [4-methyl-cyclohex-4-ene-1, 2-dicarboxylic acid anhydride]
Conditions	molar heat capacity at constant pressure [J/K/mol]
80 K	65.23
80.45 K	63.17
81.95 K	63.26
83.53 K	63.39
85 K	64.37
85.17 K	63.65
86.78 K	64.05
88.38 K	64.45
89.95 K	65.12
90 K	64.76
91.5 K	65.63
93.03 K	66.26
94.54 K	66.83
95 K	66.05
96.03 K	67.49
97.51 K	68.15
98.97 K	68.87
100 K	67.97
100.41 K	69.38
101.84 K	69.93
103.26 K	70.47
104.66 K	71.22
105 K	70.28
106.05 K	71.84
107.43 K	72.36
108.8 K	72.92
110 K	72.81
110.15 K	73.65
111.5 K	74.07
112.83 K	74.66
114.15 K	75.18
115 K	75.44
115.47 K	75.87
116.77 K	76.33
118.07 K	76.91
119.35 K	77.54
120 K	78.06
120.63 K	78.18
121.9 K	78.77
123.16 K	79.3
124.42 K	79.75
125 K	80.62
125.66 K	80.33
126.9 K	80.87
128.14 K	81.35
129.36 K	81.93
130 K	83.08
130.58 K	82.44
131.83 K	82.95
132.96 K	83.78
134.16 K	84.15
135 K	85.43
135.38 K	84.59
136.59 K	85.28
137.72 K	85.94
138.93 K	86.2
140 K	87.67
140.14 K	86.69
141.27 K	86.97
142.48 K	87.65
143.6 K	88.22
144.72 K	88.9
145 K	89.84
145.85 K	89.28
146.98 K	89.92
148.1 K	90.42
149.22 K	90.83
150 K	91.95
150.43 K	91.65
151.55 K	91.97
153.01 K	92.74
154.67 K	93.61
155 K	94.06
156.32 K	94.64
158.04 K	95.26
159.69 K	95.96
160 K	96.19
161.35 K	96.78
162.97 K	97.8
164.62 K	98.83
165 K	98.39
166.25 K	99.65
167.8 K	100.5
169.46 K	101.34
170 K	100.7
171.37 K	102.49
173.61 K	103.54
175 K	103.17
175.85 K	104.8
178.12 K	106.11
180 K	105.81
180.28 K	107.31
182.43 K	108.56
184.61 K	109.77
185 K	108.67
186.68 K	111.17
188.84 K	112.46
190 K	111.75
190.92 K	113.85
192.99 K	115.1
195 K	115.07
195.07 K	116.42
197.13 K	117.72
199.15 K	118.98
200 K	118.62
201.22 K	120.78
203.2 K	121.75

From the NIST ThermoML archive (doi:10.1021/je049585t)
